Test results taken from patent US5436229A, “Bisulfite adducts of arginine aldehydes” (Eli Lilly and Company, priority 1994, dated 1995).

What was measured:
Type in all cases: biochemical
human thrombin = human thrombin (Homo sapiens, UniProt P00734); test: Thrombin amidase inhibition (Kass), chromogenic substrate
Method: The assay is carried out by mixing 50 μl buffer (0.03M Tris, 0.15M NaCl, pH 7.4) with 25 μl of human thrombin solution (purified human thrombin, Enzyme Research Laboratories, South Bend, Ind., at 8 NIH units/ml) and 25 μl of test compound in a solvent (50% aqueous methanol (v:v)). Then 150 μl of an aqueous solution of the chromogenic substate (at 0.25 mg/ml) are added and the rates of hydrolysis of the substrate are measured by monitoring the reactions at 405 nm for the release of p-nitroaniline. Standard curves are constructed by plotting free thrombin concentration against hydrolysis rate. […] The amount of free inhibitor in each assay is calculated by subtracting the number of moles of bound thrombin from the number of moles of added inhibitor (test compound).
The Kass value is the hypothetical equilibrium constant for the reaction between thrombin and the test compound (I) . [formula]
Kass is calculated for a range of concentrations of test compounds and the mean value reported in units of liter per mole.

factor Xa = target: T1, factor Xa (Homo sapiens, UniProt P00742); test: Serine protease inhibition (Kass), factor Xa
T1 construct: Human factors X, Xa, IXa, XIa, and XIIa are purchased from Enzyme Research Laboratories; purchased Enzyme Research Laboratories, South Bend, Ind
Method: (§1) By substantially following the procedures described above for human thrombin, and using other human blood coagulation system serine proteases and using fibrinolytic system serine proteases, with the appropriate chromogenic substrates, identified below, the selectivity of the compounds of the present invention with respect to the coagulation factor serine proteases and to the fibronolytic serine proteases are evaluated as well as their substantial lack of interference with human plasma clot fibrinolysis.
(§2) Human factors X, Xa, IXa, XIa, and XIIa are purchased from Enzyme Research Laboratories, South Bend, Ind.; human urokinase from Leo Pharmaceuticals, Denmark; and recombinant activated Protein C (aPC) is prepared at Eli Lilly and Co. substantially according to U.S. Pat. No. 4,981,952 incorporated by reference herein in its entirety. Chromogenic substrates: N-Benzoyl-Ile-Glu-Gly-Arg-p-nitroanilide (for factor Xa); N-Cbz-D-Arg-Gly-Arg-p-nitroanilide (for factor IXa assay as the factor Xa substrate); Pyroglutamyl-Pro-Arg-p-nitroanilide (for Factor XIa and for aPC); H-D-Pro-Phe-Arg-p-nitroanilide (for factor XIIa); and Pyroglutamyl-Gly-Arg-p-nitroanilide (for urokinase); are purchased from KabiVitrum, Stockholm, Sweden, or from Midwest Biotech, Fishers, Ind. Bovine trypsin is purchased from Worthington Biochemicals, Freehold, N.J., and human plasma kallikrein from Kabi Vitrum, Stockholm, Sweden. Chromogenic substrate H-D-Pro-Phe-Arg-p-nitroanilide for plasma kallikrein is purchased from Kabi Vitrum, Stockholm, Sweden. N-Benzoyl-Phe-Val-Arg-p-nitroanilide, the substrate for human thrombin and for trypsin, is synthesized according to procedures described above for the compounds of the present invention, using known methods of peptide coupling from commercially available reactants, or purchaed from Midwest Biotech, Fishers, Ind.

human plasma [1] = test: Human plasma anticoagulation, activated partial thromboplastin time (APTT)
Method: (§3) Fibrinogen is prepared from in-date ACD human blood as the fraction I-2 according to previous procedures and specifications. Smith, Biochem. […] Coagulation reagents ACTIN, Thromboplastin, and Human plasma are from Baxter Healthcare Corp., Dade Division, Miami, Fla. Bovine thrombin from Parke-Davis (Detroit, Mich.) is used for coagulation assays in plasma. Coagulation assay procedures are as previously described. […] A CoAScreener coagulation instrument (American LABor, Inc.) is used for all coagulation assay measurements. […] The compounds of formula I are added to human or animal plasma over a wide range of concentrations to determine prolongation effects on the APTT, PT, and TT assays. Linear extrapolations are performed to estimate the concentrations required to double the clotting time for each assay.

human plasma [2] = test: Human plasma anticoagulation, thrombin time (TT)
Method: as §3

Human plasmin = target: T2, Human plasmin (Homo sapiens, UniProt P00747); test: Serine protease inhibition (Kass), plasmin
T2 construct: Human plasmin is purchased from Boehringer Mannheim; purchased Boehringer Mannheim, Indianapolis, Ind
Method: as §1
(§4) Human plasmin is purchased from Boehringer Mannheim, Indianapolis, Ind.; nt-PA is purchased as single chain activity reference from American Diagnostica, Greenwich, Conn.; modified-t-PA6 (mt-PA6) is prepared at Eli Lilly and Company by procedure known in the art (See, Burck, et al., J. Biol. Chem., 265, […] (1990). Plasmin chromogenic substrate H-D-Val-Leu-Lys-p-nitroanilide and tissue plasminogen activator (t-PA) substrate H-D-Ile-Pro-Arg-p-nitroanilide are purchased from Kabi Vitrum, Stockholm, Sweden.

Bovine trypsin = target: T3, Bovine trypsin (Bos taurus, UniProt P00760); test: Serine protease inhibition (Kass), trypsin
T3 construct: Bovine trypsin is purchased from Worthington Biochemicals; purchased Worthington Biochemicals, Freehold, N.J
T3 sequence (P00760 24-246): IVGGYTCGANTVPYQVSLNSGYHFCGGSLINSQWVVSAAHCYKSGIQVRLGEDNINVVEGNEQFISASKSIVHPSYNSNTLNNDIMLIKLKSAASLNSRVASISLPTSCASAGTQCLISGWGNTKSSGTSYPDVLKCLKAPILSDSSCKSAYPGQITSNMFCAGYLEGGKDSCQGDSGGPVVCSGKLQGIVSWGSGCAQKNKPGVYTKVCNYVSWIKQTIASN
Method: as §1, §2

human plasma [3] = test: Human plasma anticoagulation, prothrombin time (PT)
Method: as §3

[4] = target: T4, tissue plasminogen activator (t-PA) (Homo sapiens, UniProt P00750); test: Serine protease inhibition (Kass), t-PA
T4 construct: purchased American Diagnostica, Greenwich, Conn
Method: as §1, §4

T2 sequence (P00747 581-810 limits assumed): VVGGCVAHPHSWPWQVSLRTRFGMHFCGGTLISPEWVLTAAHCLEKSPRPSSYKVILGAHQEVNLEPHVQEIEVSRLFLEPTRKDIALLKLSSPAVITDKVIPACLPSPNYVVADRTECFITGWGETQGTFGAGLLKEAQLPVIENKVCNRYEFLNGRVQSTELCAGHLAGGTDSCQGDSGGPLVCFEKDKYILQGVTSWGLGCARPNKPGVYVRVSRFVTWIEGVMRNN
T2 sequence (P00747 97-580 partner limits assumed): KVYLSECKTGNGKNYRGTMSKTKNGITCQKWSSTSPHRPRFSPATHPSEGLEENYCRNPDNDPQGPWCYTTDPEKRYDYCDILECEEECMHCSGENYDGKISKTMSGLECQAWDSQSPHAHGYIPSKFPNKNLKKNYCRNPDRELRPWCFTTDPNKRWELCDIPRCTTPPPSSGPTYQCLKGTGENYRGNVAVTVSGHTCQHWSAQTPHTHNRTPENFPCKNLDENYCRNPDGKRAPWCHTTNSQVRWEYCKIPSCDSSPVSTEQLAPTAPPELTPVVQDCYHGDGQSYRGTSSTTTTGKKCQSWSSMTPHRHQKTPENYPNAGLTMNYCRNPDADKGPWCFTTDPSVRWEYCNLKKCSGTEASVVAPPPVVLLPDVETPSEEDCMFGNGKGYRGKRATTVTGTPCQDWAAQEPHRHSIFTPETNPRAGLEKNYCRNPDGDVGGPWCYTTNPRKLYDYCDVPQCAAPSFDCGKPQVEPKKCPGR
T1 sequence (P00742 235-488 limits assumed): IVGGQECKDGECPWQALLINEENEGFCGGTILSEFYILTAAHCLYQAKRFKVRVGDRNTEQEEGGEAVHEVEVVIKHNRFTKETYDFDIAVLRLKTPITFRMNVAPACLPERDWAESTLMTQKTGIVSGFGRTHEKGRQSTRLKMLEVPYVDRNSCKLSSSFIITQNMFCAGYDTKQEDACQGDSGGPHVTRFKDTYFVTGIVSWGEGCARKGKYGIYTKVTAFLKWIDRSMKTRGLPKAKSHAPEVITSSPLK
T1 sequence (P00742 41-179 partner limits assumed): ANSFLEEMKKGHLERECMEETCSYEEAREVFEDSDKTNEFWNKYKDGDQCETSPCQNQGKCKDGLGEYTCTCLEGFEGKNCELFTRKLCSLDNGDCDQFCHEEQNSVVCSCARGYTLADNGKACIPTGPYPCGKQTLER
T4 sequence (P00750 36-562): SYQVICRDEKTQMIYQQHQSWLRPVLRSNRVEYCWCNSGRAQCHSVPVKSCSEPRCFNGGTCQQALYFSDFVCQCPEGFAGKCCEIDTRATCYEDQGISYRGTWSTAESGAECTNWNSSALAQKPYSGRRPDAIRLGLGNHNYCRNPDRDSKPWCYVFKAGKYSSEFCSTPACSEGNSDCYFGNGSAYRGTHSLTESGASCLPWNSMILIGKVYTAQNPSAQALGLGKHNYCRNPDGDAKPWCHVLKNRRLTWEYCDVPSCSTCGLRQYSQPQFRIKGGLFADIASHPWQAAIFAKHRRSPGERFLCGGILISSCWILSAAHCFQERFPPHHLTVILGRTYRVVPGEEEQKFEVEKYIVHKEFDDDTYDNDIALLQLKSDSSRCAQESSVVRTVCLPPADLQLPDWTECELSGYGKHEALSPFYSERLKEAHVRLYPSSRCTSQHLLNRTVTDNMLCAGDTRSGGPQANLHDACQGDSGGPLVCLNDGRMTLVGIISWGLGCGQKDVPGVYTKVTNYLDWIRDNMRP

| Structure (SMILES) | Kass Human Thrombin (human thrombin) [L/mol × 10^6] | Kass Xa (factor Xa) [L/mol × 10^6] | 2 × Clotting time APTT (human plasma [1]) | 2 × Clotting time TT (human plasma [2]) [ng/mL] | Kass Plasmin (Human plasmin) [L/mol × 10^6] | Kass Trypsin (Bovine trypsin) [L/mol × 10^6] | 2 × Clotting time PT (human plasma [3]) | Kass t-PA [4] [L/mol × 10^6] |
| --- | --- | --- | --- | --- | --- | --- | --- | --- |
| CC(C)C1N[C@@H](C(=O)N2CCC[C@H]2C(=O)N[C@H](C=O)CCCNC(=N)N)C(C)(C)S1.Cl.Cl (stereo partly drawn) [Example 5, D-2-Isopropyl-5,5-Dimethylthiazolidinyl-4-Carbonyl-L-Prolinyl-L-Arginine Aldehyde Dihydrochloride] | 4 | – | – | – | – | – | – | – |
| Cl.Cl.Cl.N=C(N)NCCC[C@@H](C=O)NC(=O)[C@@H]1CCCN1C(=O)[C@H]1C[C@H](Oc2ccc3ccccc3c2)CN1.O [Example 6, trans-4-(2-Naphthyloxy)-D-Prolinyl-L-Prolinyl-L-Arginine Aldehyde Trihydrochloride Monohydrate] | 21 | – | – | – | – | – | – | – |
| Cl.Cl.Cl.N=C(N)NCCC[C@@H](C=O)NC(=O)[C@@H]1CCCN1C(=O)[C@H]1C[C@H](Sc2ccccc2)CN1.O.O.O [Example 14, trans-4-phenylthio-D-prolinyl-L-prolinyl-L-arginine aldehyde trihydrochloride trihydrate] | 37 | – | – | – | – | – | – | – |
| Cl.Cl.N=C(N)NCCC[C@@H](C=O)NC(=O)[C@@H]1CCCN1C(=O)CN1CCCCC1.O [Example 18, 2-(2-Piperidino)acetyl-L-Pro-L-Arginine Aldehyde Dihydrochloride Monohydrate] | 1 | – | – | – | – | – | – | – |
| Cl.Cl.N=C(N)NCCC[C@@H](C=O)NC(=O)[C@@H]1CCCN1C(=O)C1CCCNC1.O (stereo partly drawn) [Example 19, 3-piperidinocarbonyl-L-Pro-L-Arginine Aldehyde Dihydrochloride Monohydrate] | 2 | – | – | – | – | – | – | – |
| Cl.Cl.N=C(N)NCCC[C@@H](C=O)NC(=O)[C@@H]1CCCN1C(=O)C1CNC2CCCCC21.O (stereo partly drawn) [Example 20, 3-perhydroindolylcarbonyl-L-pro-L-Arginine Aldehyde Dihydrochloride Monohydrate] | 11 | – | – | – | – | – | – | – |
| CNC1CCCCC1C(=O)N1CCC[C@H]1C(=O)N[C@H](C=O)CCCNC(=N)N.Cl.Cl (stereo partly drawn) [Example 21, 2-(N-methyl)aminocyclohexyl-carbonyl-L-Pro-L-Arginine Aldehyde Dihydrochloride] | 18.4 | – | – | – | – | – | – | – |
| Cl.Cn1c(C(=O)N[C@@](C)(C(=O)N2CC[C@H]2C(=O)N[C@H](C=O)CCCNC(=N)N)c2ccccc2)cc2ccccc21 [Example 23, 1-methylindole-2-carbonyl-D-(α-methyl)phenylglycine-Azt-Arg-H hydrochloride] | 79 | 0.06 | 1,800 ng/mL | 59 | 0.55 | 29 | 1,980 ng/mL | 0.02 |
| Cl.Cl.N=C(N)NCCC[C@@H](C=O)NC(=O)[C@@H]1CCCN1C(=O)[C@@]1(Cc2ccccc2)CCCN1.O.O [Example 24, D-Prolinyl (αbenzyl)-L-Prolinyl-L-arginine aldehyde, dihydrochloride dihydrate] | 12 | 0.13 | 2,100 ng/mL | 160 | 0.31 | 14 | 3,600 ng/mL | 0.0034 |
| Cl.Cl.N=C(N)NCCC[C@@H](C=O)NC(=O)[C@]1(Cc2ccccc2)CCCN1C(=O)[C@@H]1CCCN1 [Example 25, Prolinyl (αbenzyl)-L-Prolinyl-L-Arginine Aldehyde Dihydrochloride] | 350 | 0.27 | 960 ng/mL | 28 | 0.77 | 43 | 1,400 ng/mL | 0.0045 |
| Cl.Cl.N=C(N)NCCC[C@@H](C=O)NC(=O)[C@@H]1CCCN1C(=O)C1(Cc2ccccc2)CCN1 (stereo partly shown) [Example 26] | 75 | 0.12 | 1,400 ng/mL | 42 | 0.17 | 17 | 1,100 ng/mL | 0.0028 |
| CCOC(=O)N[C@H](Cc1ccccc1)C(=O)N1CCC[C@@]1(C)C(=O)N[C@H](C=O)CCCNC(=N)N.Cl [Example 27, N-ethoxycarbonyl-D-Phenylalanyl(α-methyl)-L-prolinyl-L-arginine aldehyde hydrochloride] | 75 | 0.044 | 2,500 ng/mL | 48 | 0.059 | 2.4 | 2,200 ng/mL | 0.00079 |
| CCS(=O)(=O)N[C@H](Cc1ccccc1)C(=O)N1CCC[C@@]1(C)C(=O)N[C@H](C=O)CCCNC(=N)N.Cl [Example 28, N-ethylsulfonyl-D-Phenylalanyl(α-methyl)-L-prolinyl-L-arginine aldehyde hydrochloride] | 24 | 0.11 | 1,600 ng/mL | 100 | 0.31 | 20 | 2,400 ng/mL | 0.051 |
| CCOC(=O)N[C@@H](Cc1ccccc1)C(=O)N1CCC[C@@]1(C)C(=O)N[C@H](C=O)CCCNC(=N)N.Cl [Example 29, N-ethoxycarbonyl-phenylalanyl(αmethyl)-L-prolinyl-L-arginine aldehyde hydrochloride] | 5.0 | 0.025 | 5,400 ng/mL | 190 | 0.020 | 1.7 | 6,100 ng/mL | 0.00072 |
| CCCCC(CCCC)(NC(=O)OCC)C(=O)N1CCC[C@H]1C(=O)N[C@H](C=O)CCCNC(=N)N.Cl [Example 42, N-ethoxycarbonylglycinyl(α,αdi-n-butyl)-L-prolinyl-L-arginine aldehyde hydrochloride] | – | 0.22 | 3,000 ng/mL | 120 | 0.24 | 38 | 2,800 ng/mL | 0.010 |
